PMC10447463, “Data-mining unveils structure–property–activity correlation of viral infectivity enhancing self-assembling peptides” (Nature Communications, 2023)
Like-named read-outs stand apart in the source and are kept apart here.

How the values were obtained:
[1] = tested on: HIV-1 infection of TZM-bl cells; assay: HIV-1 infectivity enhancement assay, β-galactosidase luminescence; type: cell-based; settings: for Rel-EFC: infection relative to EF-C (QCKIKQIINMWQ = 1); for Log10 Infection Rel EFC: log10 of infection relative to EF-C; for Log Infectivity: Log10 infection relative to EF-C, TZM-bl cells, asymmetric std dev errors; for Log10 Infection Rel EF-C: HIV-1 infection of TZM-bl cells; for Abs. Inf.: absolute infection signal, HIV-1 on TZM-bl cells, β-galactosidase luminescence; for Log10 Inf. rel. to EF-C: log10 of HIV-1 infection of TZM-bl cells relative to EF-C (EF-C = 0)
[2] = type: physicochemical; parameters: key to Fibril / Fibril Formation / TEM 2cat / Fibril: 1 = fibrils present; 0 non-fibrillar structures; settings: for Fibril / Fibril Formation: 1 mg/mL, uranyl acetate stain, qualitative
[3] = Zeta-potential measurement; type: physicochemical
Outline: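 Peptides from a 10 mg/mL DMSO stock were brought to 1 mg/mL in PBS (pH 7.4) and aged 1 d at RT. Just before reading, they were diluted into 1 mM aqueous KCl, and zeta potential was calculated from electrophoretic mobility with the Smoluchowski formula.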

[4] = Turbidity, derived count rate of scattered light; type: physicochemical; settings: for Count Rate: derived count rate of scattered light (turbidity); for Log10 Count Rate: turbidity, derived count rate of scattered light, data of Figure 2D
[5] = Fig. S7 panel A (plotted against β-sheet content)
[6] = Fig. S7 panel B (plotted against CR), rounded to two decimals
[7] = Log10 of infection rate relative to EF-C, Figure 3A source data
[8] = infection rate relative to EF-C, log10, data of Figure 2D
[9] = infection rate relative to EF-C, log10, source data of Figure 2C
[10] = FigS12 panel A, fibril category by TEM
[11] = TEM, 1 = fibrils present, 0 = non-fibrillar
[12] = TEM, 1 = fibrils present, 0 = non-fibrillar structures
[13] = zeta-potential of peptide, source data of Figure 2C
[14] = zeta-potential of the peptide assemblies, mean, Figure 3A source data
[15] = zeta potential of peptide assemblies

| Substance | Rel-EFC ([1]; 1.3 µM peptide) | Log10 Infection Rel EFC ([1]; 1.3 µM peptide) | Log Infectivity [1, 5] | Log Infectivity [1, 6] | Log10 Infection Rel EF-C [1, 7] | Log10 Infection Rel EF-C [1, 8] | Log10 Infection Rel EF-C [1, 9] | Abs. Inf. [1] | Log10 Inf. rel. to EF-C [1] | TEM 2cat ([2]; Fig S10 panel D) | Fibril ([2]; Fig S10 panel E) | TEM 2cat [2, 10] | Fibril ([2]; FigS12 panel B, TEM) | Fibril / Fibril Formation ([2]; TEM) | Fibril [2, 11] | Fibril [2, 12] | Zeta-Potential / mV [3, 13] [mV] | Zeta-Potential / mV [3, 14] [mV] | Count Rate [4] | Log10 Count Rate [4] | other results |
| --- | --- | --- | --- | --- | --- | --- | --- | --- | --- | --- | --- | --- | --- | --- | --- | --- | --- | --- | --- | --- | --- |
| HLHLPLL | 0,01 | -2 | -1.9991 | -2 | -2 | -1.9991 | -1.9991 | 133.3 | -1.9991 | 0 | 0 | 0 | 0 | 0 | 0 | 0 | -5.247 | -9.05 | 200 | 2.301 | Zeta-Pot. [3]: -9.053 |
| HRRHFRHKITKKK | 0,01 | -1,87 | -1.868 | -1.87 | -1.87 | -1.868 | -1.868 | 150 | -1.868 | 0 | 0 | 0 | 0 | 0 | 0 | 0 | -4.964 | -9.22 | 9.5 | 0.9777 | Zeta-Pot. [3]: -9.223 |
| KAKAQA | 0,02 | -1,74 | -1.743 | -1.74 | -1.74 | -1.743 | -1.743 |  | -1.743 | 0 | 0 | 0 | 0 | 0 | 0 | 0 | -10.04 | -14.08 | 20.93 | 1.321 | Abs. Infection at 0.26 µM ([1]; peptide 0.26 µM, mean of n = 3, Figure 4A): 100; Infect 1 0.26 µM ([1]; peptide 0.26 µM, replicate 1, absolute infection signal, Figure 4A): -23.33; Infect 2 0.26 µM ([1]; peptide 0.26 µM, replicate 2, absolute infection signal, Figure 4A): 166.67; Infect 3 0.26 µM ([1]; peptide 0.26 µM, replicate 3, absolute infection signal, Figure 4A): 156.67; Abs. Infection at 1.3 µM ([1]; peptide 1.3 µM, mean of n = 3, Figure 4A): 146.7; Infect 1 .3 µM ([1]; peptide 1.3 µM, replicate 1, absolute infection signal, Figure 4A): 126.67; Infect 2 1.3µM ([1]; peptide 1.3 µM, replicate 2, absolute infection signal, Figure 4A): 46.67; Infect 3 1.3 µM ([1]; peptide 1.3 µM, replicate 3, absolute infection signal, Figure 4A): 266.67; Zeta-Pot. [3, 15]: -14.08 |
| KAKAQANMWQ | 0,01 | -2,15 | -2.146 | -2.15 | -2.15 | -2.146 | -2.146 | 193.3 | -2.146 | 0 | 0 | 0 | 0 | 0 | 0 | 0 | -14.675 | -19.63 | 56.17 | 1.749 | Inf. rel. EF-C ([1]; HIV-1 infection relative to EF-C, Fig 23 plot, panels A and B, mean of 3 values): 0.008469; Inf. rel. EF-C ([1]; HIV-1 infection relative to EF-C, Fig 23 plot, single data point, replicate 1): 0.01122; Inf. rel. EF-C ([1]; HIV-1 infection relative to EF-C, Fig 23 plot, single data point, replicate 2): 0.003015; Inf. rel. EF-C ([1]; HIV-1 infection relative to EF-C, Fig 23 plot, single data point, replicate 3): 0.01117; Abs. Inf. / RLU s-1 ([1]; absolute infection rate, peptide 1.3 µM on cells, virus preincubated 10 min with fibrils, read 3 days post infection, mean of triplicate): 193 RLU s-1; Inf. rel. EF-C ([1]; n-fold infection vs virus only, relative to that of EF-C, 1.3 µM peptide): 0.01; Zeta-Pot. [3]: -19.63; Zeta pot. / mV ([3]; 1 mg/mL in PBS pH 7.4 from 10 mg/mL DMSO stock, 1 d RT, 60 µL diluted in 600 µL 1 mM KCl, Zetasizer Nano ZS, Smoluchowski, mean of triplicate): -19.6 mV |
| KAKQAANMWQ | 0,03 | -1,51 | -1.514 |  | -1.51 | -1.514 | -1.514 | 343.3 | -1.514 | 0 |  | 0 | 0 | 0 | 0 | 0 | -8.433 | -12.9 | 690.5 | 2.839 | Zeta-Pot. [3]: -12.9 |
| KFKFQF | 0,06 | -1,21 | -1.213 | -1.21 | -1.21 | -1.213 | -1.213 |  | -1.213 | 0 | 0 | 0 | 0 | 0 | 0 | 0 | -8.745 | -11.03 | 183.4 | 2.263 | Zeta-Pot. [3, 15]: -11.03 |
| KFKFQFNMWQ | 0,76 | -0,12 | -0.1164 | -0.12 | -0.12 | -0.1164 | -0.1164 | 20676.66667 | -0.1164 | 1 | 1 |  |  | 1 | 1 | 1 | 24.38 | 25.4 | 734.6 | 2.866 | Log10 of Rel to EFC (Feb2021) ([1]; Log10 of infection relative to EF-C, all peptides of FigS16): -0.12; TEM 2cat ([2]; category: fibrils present or non-fibrillar): 1; Zeta-Pot. [3]: 25.4 |
